Results as given in US20260083686A1, “METHODS FOR SUPPRESSING ACCUMULATION OF REFLUX-INDUCED PROTEIN ADDUCTS” (Vanderbilt University, priority 2018, published 2026).
“Also recorded” adds a separate entry of the source.

Legend:
[1] = tested on: isoLG protein adducts in esophageal tissues; assay: Surgical (esophagojejunostomy) reflux model in mice, isoLG adducts by immunohistochemistry with D11 antibody; type: in vivo; conditions: 2-HOBA 1 mg/ml in drinking water for 10 days; for accumulation of isoLG adducts in esophageal tissues in vivo: mice with surgically induced reflux
Text: To investigate the formation of isoLG protein adducts in the esophagus, The present inventors used a surgical model of esophageal reflux injury. To generate animals with reflux, a section of the mouse jejunum was transected and then anastomosed to the esophagus resulting in an increased reflux. […] Using immunohistochemistry with D11 antibody, the present inventors compared levels of isoLG protein adducts in esophageal epithelia of animals with reflux induced by surgery and control animals with sham surgery. Levels of isoLG adducts were also analyzed in surgical animals treated with isoLG scavenger 2-HOBA for 10 days. The present inventors found significant accumulation of isoLG protein adducts in esophageal animal tissues affected by reflux.
Induction of Reflux in Mice: Reflux was induced by surgical procedure, esophagojejunal anastomosis, as previously described. Esophagojejunostomy was performed on fourteen 8-week-old 129SV mice according to the protocol approved by the Vanderbilt University Animal Care and Use Committee. Animals were then be allowed a 2-weeks recovery period on regular rodent chow ad libitum prior to were randomly assigned into two groups. First group of 7 mice with surgery was treated with 2-HOBA (1 mg/ml) delivered in drinking water for 10 days, while a control group (7 surgical animals) only received water. Additional control group of 5 animals with sham surgery received water. The esophagus and gastroesophageal junction areas from the test and control groups of animals were harvested, paraffin-embedded and analyzed by immunohistochemistry with D11 antibody. Indices of D11 positivity were scored and compared in test and control groups of animals.

[2] = tested on: p53 isoLG protein adducts in EPC-2 cells; assay: p53 immunoprecipitation and Western blot with D11 antibody for p53 isoLG adducts in BA/A-treated EPC-2 cells; type: cell-based, human; conditions: 2-HOBA 50 μM, p53 (DO-1) immunoprecipitation, D11 Western blot
Procedure: To directly analyze p53 protein adducts, cellular lysates of EPC-2 cells, which were treated with BA/A in the presence or absence of 2-HOBA, were immunoprecipitated with p53 antibody. The immunoprecipitated p53 protein was then analyzed for the isoLG adducts by Western blotting with isoLG-specific D11 antibody.
Treatment With Acidic Bile Salts (BA/A) and 2-HOBA: Cells were treated in acidic DMEM media (pH 4.0), containing bile salts cocktail at final concentration of 100 μM. The bile salt cocktail was prepared with a combination of glycocholic, taurocholic, glycodeoxycholic, glycochenodeoxycholic and deoxycholic sodium salts (all reagents were from Sigma-Aldrich, St. Louis, MO) at a concentration of 20 μM each. TE-7 and HET-1A cells were treated for 30 minutes, whereas, EPC-2 cells were treated for 15 minutes and then the media was replaced. […]
For immunoprecipitation, cells were harvested by centrifugation at 200 g for 5 minutes and resuspended in PBS with protease inhibitor cocktail. […] The immunoprecipitated samples were analyzed by Western blotting with D11 antibody and anti-E tag HRP-conjugated antibodies from Abcam. The analyzed membranes were stripped in Restore™ Western Blot Stripping Buffer (ThermoFisher Scientific, Waltham, MA) at +50° C. for 1 hour, washed, and blocked with 5% milk and analyzed by Western blotting with p53 (DO1) antibody.

[3] = tested on: isoLG protein adducts (LG-lysine lactam) in TE-7 cells; assay: LG-lysine lactam adducts by LC/ESI/MS/MS in TE-7 cells treated with acidic bile salts (BA/A); type: cell-based, human; conditions: BA/A 100 μM pH 4.0 for 30 min, 2-HOBA 50 μM
Text: Formation of LG-lysine adducts was further verified by quantification of the LG-lysyl lactam adducts using liquid chromatography-electrospray ionization-tandem mass spectrometry (LC/ESI/MS/MS) in TE-7 cells treated with BA/A. Our studies confirmed that levels of LG-lysine lactam adduct are higher in BA/A treated than control samples. Our quantification analyses were based on specific transitions from the molecular ion at m/z=479.2 to the specific fragment at m/z=332.1. The elution of the two fragment ions found in BA/A treated samples was similar to the [13C6]lysine-lactam internal standard (FIG. 2A). As an additional control, TE-7 cells were treated with BA/A as above but in the presence of known isoLG scavenger 2-hydroxybenzylamine (2HOBA) and analyzed by mass spectrometry.
Cell Lines: Human non-tumorous esophageal cell line (HET-1A) and human esophageal carcinoma cell line (TE-7) were purchased from ATCC. The morphology, karyotyping and PCR based techniques were used by ATCC to confirm the cell line identity. […]
Detection of Levuglandinyl-Lysine Lactam Using Liquid Chromatography/Electrospray Ionization/Tandem Mass Spectrometry (LC/ESI/MS/MS): Levuglandinyl-lysine lactam was analyzed in TE-7 cells treated with acidic bile salts and control untreated cells using LC/ESI/MS/MS. […]

With `NCc1ccccc1O` [2-HOBA, 2-hydroxybenzylamine] the “accumulation of isoLG adducts in esophageal tissues in vivo” value [1] was “efficiently decreased isoLG protein adducts in mice in vivo; also recorded: prevents accumulation of isoLG adducts in vivo; also recorded: inhibited accumulation of isoLG adducts in vivo”, the “accumulation of isoLG adducts in esophageal tissues in vivo” value ([1]; listed as 2HOBA) was “efficiently suppresses accumulation of reflux-induced protein adducts in vitro and in vivo” and the “isoLG adducts: surgical animals treated with 2-HOBA versus sham control animals” value ([1]; mice) was “did not find significant difference”. The “formation of p53 isoLG protein adducts” value [2] was “significantly inhibited formation of p53 protein adducts; also recorded: inhibited the formation of p53 protein adducts”, the “formation of isoLG protein adducts (LG-lysine lactam adduct levels)” value [3] was “higher in BA/A-treated samples compared to control and treated with isoLG scavenger 2-HOBA” and the “formation of isoLG protein adducts (LG-lysine lactam adduct levels)” value ([3]; listed as 2HOBA) was “inhibited formation of isoLG protein adducts”.
